Experimental data reported in the supplement of paper PMC7840683.

System: HepaRG
Assay: LDH release cytotoxicity, % of total lysis control; higher = more cytotoxic
Conditions: 48 h
Method in brief: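 Single-lot HepaRG cells in collagen I-coated 96-well plates were treated for 48 h in serum-free induction medium containing 0.5% DMSO with test chemicals in eight-point half-log series up to 100 µM. For total lysis, wells received 0.1% Triton X. LDH in 50 µL spent medium was assayed by resorufin fluorescence with CytoTox-ONE. Percent cytotoxicity was normalized to the on-plate vehicle and total lysis controls, with duplicates averaged.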

O=C(OCCCCCCOC(=O)c1ccccc1)c1ccccc1 [Hexane-1,6-diyl dibenzoate]
Conditions	LDH release cytotoxicity [%]
0.03162 µM	-2.1
0.1 µM	-1.87
0.3162278 µM	-2.22
1 µM	-2.77
3.16228 µM	-2.28
10 µM	-1.66
31.6228 µM	-1.98
100 µM	-0.594

OCC1OC(OC2(CO)OC(CO)C(O)C2O)C(O)C(O)C1O (centres undefined) [Sucrose]
Conditions	LDH release cytotoxicity [%]
0.03162 µM	-1.56
0.1 µM	-2.84
0.3162278 µM	-1.3
1 µM	-1.84
3.16228 µM	-2
10 µM	-0.48
31.6228 µM	-0.542
100 µM	1.54

CCn1nc(Cc2ccccc2)cc1C1CCN(CC2CC(N(C)C(C(=O)O)C(C)C)CC2c2cccc(F)c2)CC1 (centres undefined) [MK-578]
Conditions	LDH release cytotoxicity [%]
0.03162 µM	-1.06
0.1 µM	-1.8
0.3162278 µM	-1.85
1 µM	-2.168
3.16228 µM	-2.16
10 µM	-1.47
31.6228 µM	-1.08
100 µM	9.55

CC(=O)OC1(C(C)=O)CCC2C3C=C(Cl)C4=CC(=O)C5CC5C4(C)C3CCC21C (centres undefined) [Cyproterone acetate]
Conditions	LDH release cytotoxicity [%]
0.03162 µM	-0.255
0.1 µM	-1.64
0.3162278 µM	-0.773
1 µM	-0.77
3.16228 µM	-0.346
10 µM	0.58
31.6228 µM	10.4
100 µM	46.5

CC1(C)C(=O)N(Br)C(=O)N1Br [1,3-Dibromo-5,5-dimethylhydantoin]
Conditions	LDH release cytotoxicity [%]
0.03162 µM	-0.925
0.1 µM	-0.284
0.3162278 µM	-0.732
1 µM	-1.11
3.16228 µM	-0.698
10 µM	0.338
31.6228 µM	-0.0587
100 µM	0.735

OCCN(CCO)CCO [Triethanolamine]
Conditions	LDH release cytotoxicity [%]
0.03162 µM	-0.32
0.1 µM	-0.911
0.3162278 µM	-1.61
1 µM	-1.26
3.16228 µM	-1.19
10 µM	-0.416
31.6228 µM	-0.346
100 µM	1.04

CSc1nc(NC(C)C)nc(NC(C)C)n1 [Prometryn]
Conditions	LDH release cytotoxicity [%]
0.031623 µM	1.02
0.1 µM	-3.89
0.316228 µM	-3.27
1 µM	-2.93
3.16228 µM	-2.42
10 µM	-2.73
31.6228 µM	-3.26
100 µM	-1.44

CC(C)CCCCCCCOC(=O)CCCCC(=O)OCCCCCCCC(C)C [Diisodecyl hexanedioate]
Conditions	LDH release cytotoxicity [%]
0.03162 µM	-0.938
0.1 µM	-1.86
0.3162278 µM	-1.91
1 µM	-1.58
3.16228 µM	-1.63
10 µM	-1.13
31.6228 µM	-0.135
100 µM	0.966

O=C(O)c1cccc(Oc2ccccc2)c1 [3-Phenoxybenzoic acid]
Conditions	LDH release cytotoxicity [%]
0.0253 µM	2.02
0.08 µM	1.68
0.252982 µM	1.75
0.8 µM	0.842
2.52982 µM	0.659
8 µM	-0.233
25.2982 µM	-0.367
80 µM	-1.57

OCCO [Ethylene glycol]
Conditions	LDH release cytotoxicity [%]
0.0317809 µM	-0.738
0.1005 µM	-1.93
0.317809 µM	-2.04
1.005 µM	-2.45
3.17809 µM	-1.91
10.05 µM	-1.42
31.7809 µM	-1.26
100.5 µM	0.328

CCNc1nc(Cl)nc(NC(C)(C)C#N)n1 [Cyanazine]
Conditions	LDH release cytotoxicity [%]
0.03162 µM	-0.628
0.1 µM	-0.139
0.3162278 µM	-0.711
1 µM	-1.27
3.16228 µM	-0.482
10 µM	-0.431
31.6228 µM	-0.343
100 µM	0.714

Oc1ccc2ccccc2c1N=Nc1ccccc1 [C.I. Solvent Yellow 14]
Conditions	LDH release cytotoxicity [%]
0.031623 µM	-0.466
0.1 µM	-3.7
0.316228 µM	-3.44
1 µM	-2.66
3.16228 µM	-0.781
10 µM	-0.446
31.6228 µM	-2.17
100 µM	-3.46

CCC(=C(CC)c1ccc(O)cc1)c1ccc(O)cc1 [Diethylstilbestrol]
Conditions	LDH release cytotoxicity [%]
0.031623 µM	-1.08
0.1 µM	-0.295
0.316228 µM	-1.31
1 µM	-2.18
3.16228 µM	-2.64
10 µM	-2.24
31.6228 µM	-0.817
100 µM	0.74
